Literature values in patent US9643990B2, “Non-caloric sweeteners and methods for synthesizing” (Conagen Inc., priority 2014, dated 2017).

Conditions: background statement, no method given

Molecule	sweetness relative to sucrose
C=C1C[C@@]23CC[C@H]4[C@@](C)(CCC[C@@]4(C)C(=O)O[C@@H]4O[C@H](CO)[C@@H](O)[C@H](O)[C@H]4O)[C@@H]2CC[C@]1(O[C@@H]1O[C@H](CO)[C@@H](O)[C@H](O)[C@H]1O[C@@H]1O[C@H](CO)[C@@H](O)[C@H](O)[C@H]1O)C3 [stevioside, Stevioside]	100-150 times sweeter than sucrose
Dulcoside A	about 30 times sweeter than sucrose
Rebaudioside C	40-60 times sweeter than sucrose
